Test results published in patent US12691101B2, “Compound and method for preventing or treating of respiratory diseases comprising the same as an active ingredient” (YONSEI UNIVERSITY, UNIVERSITY - INDUSTRY FOUNDATION (UIF), priority 2019, dated 2026).

Target: T1, human wild-type (WT)-pendrin (Homo sapiens, UniProt O43511)
T1 construct: expressed in transfected cells
T1 sequence (O43511 1-780): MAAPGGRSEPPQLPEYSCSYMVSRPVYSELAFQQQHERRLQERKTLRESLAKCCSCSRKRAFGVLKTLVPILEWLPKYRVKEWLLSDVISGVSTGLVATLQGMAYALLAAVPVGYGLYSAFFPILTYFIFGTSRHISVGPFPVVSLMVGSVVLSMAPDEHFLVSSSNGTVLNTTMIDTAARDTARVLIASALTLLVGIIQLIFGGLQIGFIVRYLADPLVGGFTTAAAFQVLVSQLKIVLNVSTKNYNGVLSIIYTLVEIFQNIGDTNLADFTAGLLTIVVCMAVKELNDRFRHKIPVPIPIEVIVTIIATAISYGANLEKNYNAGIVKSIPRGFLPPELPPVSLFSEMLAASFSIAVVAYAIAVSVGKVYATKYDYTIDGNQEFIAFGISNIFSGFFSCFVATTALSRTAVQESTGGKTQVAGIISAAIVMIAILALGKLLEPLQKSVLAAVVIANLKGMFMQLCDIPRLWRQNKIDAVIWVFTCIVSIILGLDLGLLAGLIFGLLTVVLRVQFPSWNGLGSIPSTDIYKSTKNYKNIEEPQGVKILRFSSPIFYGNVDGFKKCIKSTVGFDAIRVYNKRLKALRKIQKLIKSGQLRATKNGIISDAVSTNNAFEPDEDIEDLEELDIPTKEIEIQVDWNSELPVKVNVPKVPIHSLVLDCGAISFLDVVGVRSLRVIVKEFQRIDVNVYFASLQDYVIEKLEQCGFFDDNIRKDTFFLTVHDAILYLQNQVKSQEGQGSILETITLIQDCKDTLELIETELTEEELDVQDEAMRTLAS
Experiment: Pendrin-mediated Cl^−/I^− exchange activity, YFP fluorescence in CHO-K1 cells
Assay type: cell-based
Details: for inhibition at 30 µM: CHO-K1, 30 μM, read-out: Pendrin inhibitory activity at 30 μM (%); for IC50: compounds showing pendrin inhibitory activity of 50% or more at 30 μM, read-out: IC50
Procedure: Chinese hamster ovary (CHO)-K1 cells were maintained in a DMEM medium containing 10% fetal bovine serum (FBS), 100 units/ml penicillin and 100 100 μg/ml streptomycin. CHO-K1 cells were stably transfected with pcDNA3.1 encoding halide sensor YFP-H148Q/I152L/F46L and human wild-type (WT)-pendrin. For distribution of primary culture of human nasal cavity epithelium (HNE) cells, passage-2 cells were seeded into transwell-transparent culture inserts with a pore size of 0.45 μm (Costar Co., Cambridge, MA) at a density of 2×10^5 cells/cm^2. The cells were maintained in a 1:1 mixture of Dulbecco's modified Eagle's medium (Lonza, Walkersville, MD) and bronchial epithelial growth medium (Lonza) supplemented with the following growth factors according to the manufacturer's instructions. After immersing the cells for the first 7 days, they were exposed to the apical air interface for the remainder of the culture period. After establishment of the air-liquid interface, the cells were used between 14 and 21 days. At all stages of culture, the cells were maintained at 37° C. under 5% CO2 in an air incubator.
CHO-K1 cells expressing human WT pendrin and YFP-F46L/H148Q/I152L were plated on a 96-well microplate at a density of 2×10^4 cells per well and cultured for 48 hours. Each well of the cell cultured 96-well plate was washed with PBS of 200 μL twice and was filled with HEPES buffer solution of 50 μL, respectively. […] After culturing at 37° C. for 10 minutes, the 96-well plate was positioned on FLUOstar Omega microplate reader (BMG Labtech, Ortenberg, Germany) for fluorescence analysis. By continuously (400 ms per point) recording fluorescence for 1 second (base line), each well was individually analyzed for pendrin-mediated I^− inflow, and then at 1 second, 50 μL of NaI-substituted HEPES buffer solution (NaI replacing NaCl) was added using a liquid injector and the YFP fluorescence was recorded for 5 seconds. The initial iodide inflow rate was determined from the initial slope of fluorescence by nonlinear regression, after injection the iodide (See FIG. 1).
For measurement of Cl^−/I^− exchange activity, YFP fluorescence was measured in pendrin and halide sensor YFP expressing CHO-K1 cells. Each well of the cell cultured 96-well plate was washed with PBS of 200 μL twice, and was filled with HEPES buffer solution (140 mM NaCl, 5 mM KCl, 1 mM MgCl2, 1 mM CaCl2, 10 mM glucose and 10 mM HEPES (pH 7.4)), respectively. […] After culturing at 37° C. for 10 minutes, the 96-well plate was positioned on FLUOstar Omega microplate reader (BMG Labtech, Ortenberg, Germany) for fluorescence analysis.
By continuously (400 ms per point) recording fluorescence for 1 second (base line), each well was individually analyzed for pendrin-mediated I^− inflow, and then at 1 second, 50 μL of NaI-substituted HEPES buffer solution (140 mM NaI, 5 mM KCl, 1 mM MgCl2, 1 mM CaCl2, 10 mM glucose and 10 mM HEPES (pH 7.4)) was added using a liquid injector and the YFP fluorescence was recorded for 5 seconds. The initial iodide inflow rate was determined from the initial slope of fluorescence by nonlinear regression, after injection the iodide.

Row | SMILES | inhibition at 30 µM | IC50
1 | CC(=O)Nc1ccc(C2=NC(=Cc3cccs3)C(=O)O2)cc1 [F33, N-(4-(5-oxo-4-(thiophen-2-ylmethylene)-4,5-dihydrooxazol-2-yl)phenyl)acetamide] | 88.7% | 9.3 ± 0.68 µM
2 | COc1ccccc1C1=NC(=Cc2cccs2)C(=O)O1 [F34, 2-(2-Methoxyphenyl)-4-(thiophen-2-ylmethylene)oxazol-5 (4H)-one] | 82.8% | 8.6 ± 0.84 µM
3 | CC(C)(C)NS(=O)(=O)c1ccc(C2=NC(=Cc3cccs3)C(=O)O2)cc1 [F35, N-(tert-butyl)-4-(5-oxo-4-(thiophen-2-ylmethylene)-4,5-dihydrooxazol-2-yl)benzene sulfonamide] | 87.2% | 11.6 ± 1.25 µM
4 | CC(C)NS(=O)(=O)c1ccc(C2=NC(=Cc3cccs3)C(=O)O2)cc1 [F36, N-isopropyl-4-(5-oxo-4-(thiophen-2-ylmethylene)-4,5-dihydrooxazol-2-yl)benzene sulfonamide] | 89.6% | 14.8 ± 2.01 µM
5 | O=C1OC(c2ccc(-c3ccccc3)cc2)=NC1=Cc1cccs1 [F37, 2-([1,1′-biphenyl]-4-yl)-4-(thiophen-2-ylmethylene)oxazol-5 (4H)-one] | 3.5% | 
6 | CC(C)(C)c1ccc(C2=NC(=Cc3ccco3)C(=O)O2)cc1 [F38, 2-(4-(tert-butyl)phenyl)-4-(furan-2-ylmethylene)oxazol-5 (4H)-one] | 92.6% | 3.5 ± 0.27 µM
7 | Cn1cc(C=C2N=C(c3ccc(C(C)(C)C)cc3)OC2=O)cn1 [F39, 2-(4-(tert-butyl)phenyl)-4-((1-methyl-1H-pyrazol-4-yl)methylene)oxazol-5(4H)-one] | 58.8% | 25.8 ± 2.16 µM
8 | CC(C)(C)c1ccc(C2=NC(=Cc3cccnc3)C(=O)O2)cc1 [F40, 2-(4-(tert-butyl)phenyl)-4-(pyridin-3-ylmethylene)oxazol-5(4H)-one] | 92.3% | 
9 | CC(C)(C)c1ccc(C2=NC(=Cc3ccncc3)C(=O)O2)cc1 [F41, 2-(4-(tert-butyl)phenyl)-4-(pyridin-4-ylmethylene)oxazol-5(4H)-one] | 27.5% | 
10 | O=C1OC(c2ccc(-c3ccccc3)cc2)=NC1=Cc1cccnc1 [F42, 2-([1,1′-biphenyl]-4-yl)-4-(pyridin-3-ylmethylene)oxazol-5(4H)-one] | 4.2% | 
11 | CSc1ccc(C=C2N=C(c3ccc(C(C)(C)C)cc3)OC2=O)cc1 [F43, 2-(4-(tert-butyl)phenyl)-4-(4-(methylthio)benzylidene)oxazol-5 (4H)-one] | 5.4% | 
12 | CC(C)(C)c1ccc(C2=NC(=Cc3ccccc3)C(=O)O2)cc1 [F44, 4-Benzylidene-2-(4-(tert-butyl)phenyl)oxazol-5 (4H)-one] | 3.5% | 
13 | O=C1OC(c2ccc(Br)cc2)=NC1=Cc1cccs1 [F45, 2-(4-Bromophenyl)-4-(thiophen-2-ylmethylene)oxazol-5 (4H)-one] | 4.6% | 
14 | CC(C)c1ccc(C2=NC(=Cc3cccs3)C(=O)O2)cc1 [F46, 2-(4-Isopropylphenyl)-4-(thiophen-2-ylmethylene)oxazol-5(4H)-one] | 53.8% | 22.7 ± 2.48 µM
15 | CC(C)c1ccc(C2=NC(=Cc3ccsc3)C(=O)O2)cc1 [F47, 2-(4-Isopropylphenyl)-4-(thiophen-3-ylmethylene)oxazol-5(4H)-one] | 33.2% | 
16 | O=C1OC(c2ccc(C(F)(F)F)cc2)=NC1=Cc1ccco1 [F48, 4-(Furan-2-ylmethylene)-2-(4-(trifluoromethyl)phenyl)oxazol-5(4H)-one] | 2.4% | 

Row | SMILES | inhibition at 30 µM | IC50
17 | CC(C)c1ccc(C2=NC(=Cc3ccco3)C(=O)O2)cc1 [F49, 4-(Furan-2-ylmethylene)-2-(4-isopropylphenyl)oxazol-5 (4H)-one] | 89.1% | 3.9 ± 0.36 µM
18 | O=C1OC(c2ccc(Br)cc2)=NC1=Cc1ccco1 [F50, 2-(4-Bromophenyl)-4-(furan-2-ylmethylene)oxazol-5 (4H)-one] | 3.7% | 
19 | O=C1OC(c2ccc(Br)cc2)=NC1=Cc1ccsc1 [F51, 2-(4-Bromophenyl)-4-(thiophen-3-ylmethylene)oxazol-5(4H)-one] | 2.7% | 
20 | O=C1OC(c2ccc3ccccc3c2)=NC1=Cc1cccs1 [F52, 2-(Naphthalen-2-yl)-4-(thiophen-2-ylmethylene)oxazol-5(4H)-one] | 4.1% | 
21 | CCCCc1ccc(C2=NC(=Cc3cccs3)C(=O)O2)cc1 [F53, 2-(4-Butylphenyl)-4-(thiophen-2-ylmethylene)oxazol-5(4H)-one] | 3.1% | 
22 | CCCCc1ccc(C2=NC(=Cc3ccco3)C(=O)O2)cc1 [F54, 2-(4-Butylphenyl)-4-(furan-2-ylmethylene)oxazol-5 (4H)-one] | 2.6% | 
23 | O=C1OC(c2ccc(OC(F)F)cc2)=NC1=Cc1cccs1 [F55, 2-(4-(difluoromethoxy)phenyl)-4-(thiophen-2-ylmethylene)oxazol-5(4H)-one] | 3.8% | 
24 | O=C1OC(c2ccccc2)=NC1=Cc1ccccc1[N+](=O)[O-] [F57, 4-(2-Nitrobenzylidene)-2-phenyloxazol-5(4H)-one] | 16.1% | 
25 | CC(=O)Oc1ccc(C=C2N=C(c3ccc(C(C)(C)C)cc3)OC2=O)cc1 [F58, 4-((2-(4-(tert-butyl)phenyl)-5-oxooxazol-4 (5H)-ylidene)methyl)phenylacetate] | 2.5% | 
26 | CN(C)c1ccc(C=C2N=C(c3sc4ccccc4c3Cl)OC2=O)cc1 [F59, 2-(3-Chlorobenzo[b]thiophen-2-yl)-4-(4-(dimethylamino)benzylidene)oxazol-5(4H)-one] | 1.8% | 
27 | COc1ccc(C2=NC(=Cc3ccc(C(=O)O)cc3)C(=O)O2)cc1 [F60, 4-((2-(4-Methoxyphenyl)-5-oxooxazol-4(5H)-ylidene)methyl)benzoate] | 3.1% | 
28 | O=C1OC(c2ccccc2)=NC1=Cc1cccs1 [F61, 2-Phenyl-4-(thiophen-2-ylmethylene)oxazol-5(4H)-one] | 2.2% | 
29 | CC(C)c1ccc(C=C2N=C(c3cccc4ccccc34)OC2=O)cc1 [F62, 4-(4-Isopropylbenzylidene)-2-(naphthalen-1-yl)oxazol-5 (4H)-one] | 2.4% | 
30 | Cc1ccc(C2=NC(=Cc3cccs3)C(=O)O2)cc1I [F63, 2-(3-Iodo-4-methylphenyl)-4-(thiophen-2-ylmethylene)oxazol-5(4H)-one] | 1.6% | 
31 | CC(C)(C)c1ccc(C2=NC(=Cc3ccc(OCc4ccccc4)cc3)C(=O)O2)cc1 [F64, 4-(4-(Benzyloxy)benzylidene)-2-(4-(tert-butyl)phenyl)oxazol-5 (4H)-one] | 2.8% | 
32 | O=C1OC(c2ccccc2)=NC1=Cc1cccn1Cc1ccccc1Cl [F65, 4-((1-(2-Chlorobenzyl)-1H-pyrrol-2-yl)methylene)-2-phenyloxazol-5(4H)-one] | 1.7% | 
